In data set [1] the test system is mice. The data set can be described thus: CNS test: Narcosis potentiating. The format is in vivo. The following applies: Mus musculus, po. From the text:
(§1) The activity of the compounds of the Formula I has been tested and compared to that of Glutethimid in various tests. As test compound 1,4;3,6-dianhydro-2,5-diazido-2,5-dideoxy-L-mannitol is used.
(§2) In Table I the LD50 and HD50 values measured on mice are disclosed (HD=hypnotic dose). Table II contains the minimal hypnotic doses measured on various animals (HDmin), while in Table III the results of various CNS tests on mice are summarized.

Another data set relates to Rabbit. Put plainly: Minimal hypnotic dose (HDmin), rabbit. The format is in vivo. The following applies: Oryctolagus cuniculus, ip.
Source text: as §1, §2

A further data set concerns Rat. The data set can be described thus: Minimal hypnotic dose (HDmin), rat. In kind it is in vivo. The following applies: ip.
Source text: as §1, §2

A further data set relates to Cat. Put plainly: Minimal hypnotic dose (HDmin), cat. The format is in vivo. The following applies: Felis catus, ip.
Source text: as §1, §2

The next data set relates to Mouse. Put plainly: Minimal hypnotic dose (HDmin), mouse. The format is in vivo. The note with it: ip.
Source text: as §1, §2

Data set [2] has as its system mice. Put plainly: CNS test: Motility. The following applies: Mus musculus, po. In kind it is in vivo.
Source text: as §1, §2

The subject of data set [3] is mice. Put plainly: HD50 (hypnotic dose) on mice. The following applies: Mus musculus, HD = hypnotic dose. In kind it is in vivo.
Source text: as §1, §2

The next data set is described as follows: in vivo. The following applies: mouse, mice.
Source text: as §1, §2

Data set [4] has as its system mice. Put plainly: CNS test: Tranquillizing effect (fighting test). The format is in vivo. The following applies: Mus musculus, po.
Source text: as §1, §2

Data set [5] deals with mice. The data set can be described thus: CNS test: Rotating rod. In kind it is in vivo. The note with it: Mus musculus, ip.
Source text: as §1, §2

The minimal effective dose is the smallest amount tested that counted as effective. Low values mean greater potency, high ones weaker potency. What is called ED50 is the dose at which the effect has come halfway, by size or by number of responders. Read a low ED50 as greater potency. Usually LD50 stands for the dose expected to kill half of the subjects tested.

Consider `CCC1(c2ccccc2)CCC(=O)NC1=O` (stereo not drawn) [Glutethimid, 3-ethyl-3-phenyl-2,6-dioxo-piperidine], for which, in the data set on mice [1], the ED100 came to 30 mg/kg. Also, the minimal effective dose with Rabbit amounted to 175 mg/kg; with Rat, 100 mg/kg; in the data set with Cat, 125 mg/kg; in the data set with Mouse, 100 mg/kg. The ED50 in the data set on mice [2] is 135 mg/kg; in the data set with mice [3] (ip), 135 mg/kg; with mice [3] (po), 200 mg/kg; in the data set on mice [4], 40 mg/kg; in the data set on mice [5], 70 mg/kg. In addition, the figures for the LD50 in “in vivo” (ip) and in “in vivo” (po) were 305 mg/kg and 580 mg/kg, respectively.

(Values after patent US4332818A, “1,4;3,6-Dianhydro-2,5-diazido-2,5-dideoxy-hexitols” (priority 1980, dated 1982).)
